Measurements reported in PubChem BioAssay AID328 (DTP/NCI, 2004).
Where “and” joins values, the source holds several entries; their conditions need not be identical. Equal values may be shown once. Toxic doses and inconclusive results are not listed.

Tested on: BDF1 mice, P388 leukemia ip, median survival T/C
Test: NCI In Vivo Anticancer Drug Screen. Data for tumor model P388 Leukemia (intraperitoneal) in B6D2F1 (BDF1) mice
Conditions: endpoint: median survival time, higher = longer survival
Summary of the method: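 Steps: implant the tumour, treat one group with compound and another with vehicle, record survival, then divide treated by control.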

[1] = dose: 50.0 mg/kg/injection, schedule: Q01DX009 (ip), vehicle: saline with Tween-80
[2] = dose: 100.0 mg/kg/injection, schedule: Q01DX009 (ip), vehicle: saline with Tween-80
[3] = dose: 200.0 mg/kg/injection, schedule: Q01DX009 (ip), vehicle: saline with Tween-80
[4] = dose: 100.0 mg/kg/injection, schedule: Q04DX003 (ip), vehicle: saline with Tween-80
[5] = dose: 200.0 mg/kg/injection, schedule: Q04DX003 (ip), vehicle: saline with Tween-80
[6] = dose: 400.0 mg/kg/injection, schedule: Q04DX003 (ip), vehicle: saline with Tween-80

With `O=C1c2ccccc2-c2ccc(Br)c3cccc1c23` the T/C (dose: 50.0 mg/kg/injection, schedule: Q01DX009 (ip), vehicle: Klucel (hydroxypropylcellulose) (HPC)) was 100 % of control, the T/C (dose: 100.0 mg/kg/injection, schedule: Q01DX009 (ip), vehicle: Klucel (hydroxypropylcellulose) (HPC)) was 100 % of control and the T/C (dose: 200.0 mg/kg/injection, schedule: Q01DX009 (ip), vehicle: Klucel (hydroxypropylcellulose) (HPC)) was 100 % of control.
With `O=C(c1ccccc1)C1CCC(=O)C1c1ccccc1` (stereo unspecified) the T/C [1] was 108 % of control, the T/C [2] was 100 % of control and the T/C [3] was 99 % of control.
For `C(=N\Nc1nnn(Cc2ccccc2)n1)/c1ccccc1`, the T/C [4] was 90 % of control, the T/C [5] was 95 % of control and the T/C [6] was 95 % of control.
With `COc1cccc(Sc2ccc([N+](=O)[O-])c3no[n+]([O-])c23)c1` the T/C (dose: 30.0 mg/kg/injection, schedule: Q01DX009 (ip), vehicle: saline with Tween-80) was 102 % of control and the T/C (dose: 60.0 mg/kg/injection, schedule: Q01DX009 (ip), vehicle: saline with Tween-80) was 115 % of control.
In the case of `Cc1ccc2c(c1)nc1c3ccccc3nnn21`, the T/C (dose: 50.0 mg/kg/injection, schedule: Q04DX003 (ip), vehicle: saline with Tween-80) is reported as 112 % of control, the T/C [4] is reported as 104 % of control and the T/C [5] is reported as 107 % of control.
`CCOC(=O)c1c[nH]n2c(=S)ncnc12` was tested, and the T/C [2] was 100 % of control and 109 % of control, the T/C [3] was 110 % of control and the T/C (dose: 400.0 mg/kg/injection, schedule: Q01DX009 (ip), vehicle: saline with Tween-80) was 104 % of control.
For `O=C1OC2(CCCCC2)OC(=O)C1=C/C=C/c1ccc([N+](=O)[O-])o1`, the T/C (dose: 3.13 mg/kg/injection, schedule: Q01DX009 (ip), vehicle: saline with Tween-80) was 100 % of control, the T/C (dose: 6.25 mg/kg/injection, schedule: Q01DX009 (ip), vehicle: saline with Tween-80) was 98 % of control and the T/C (dose: 12.5 mg/kg/injection, schedule: Q01DX009 (ip), vehicle: saline with Tween-80) was 91 % of control and 121 % of control. The T/C (dose: 25.0 mg/kg/injection, schedule: Q01DX009 (ip), vehicle: saline with Tween-80) was 97 % of control and 99 % of control and the T/C [1] was 112 % of control.
For `Cc1ncc([N+](=O)[O-])n1CCn1nnc2c1CCCC2`, the T/C [5] was 210 % of control and the T/C [6] was 114 % of control.
In the case of `COc1ccc(C2=C/C(=C3\C(=O)Oc4ccccc4C3=O)SS2)cc1`, the T/C [1] is reported as 90 % of control, the T/C [2] is reported as 92 % of control and the T/C [3] is reported as 90 % of control.
`COc1cc(OC)cc(C2=NNc3n[nH]c(=S)n3N2)c1` was tested, and the T/C [4] was 100 % of control, the T/C [5] was 95 % of control and the T/C [6] was 100 % of control.
`Nc1ccn(C2OC(CO)C(O)C2O)c(=O)n1` (stereo unspecified) was tested, and the T/C (dose: 5.0 mg/kg/injection, schedule: Q01DX010 (ip), vehicle: saline) was 190 % of control, the T/C (dose: 13.0 mg/kg/injection, schedule: Q03HX024 (ip), vehicle: saline) was 300 % of control and the T/C (dose: 16.0 mg/kg/injection, schedule: Q01DX005 (ip), vehicle: saline) was 170 % of control. For the same compound, the T/C (dose: 50.0 mg/kg/injection, schedule: Q01DX005 (ip), vehicle: Klucel (hydroxypropylcellulose) (HPC)) was 150 % of control, the T/C (dose: 60.0 mg/kg/injection, schedule: Q01DX010 (ip), vehicle: water) was 90 % of control and 110 % of control and the T/C (dose: 80.0 mg/kg/injection, schedule: Q01DX009 (ip), vehicle: water) was 86 % of control. The T/C (dose: 80.0 mg/kg/injection, schedule: Q01DX010 (ip), vehicle: water) was 90 % of control, the T/C (dose: 100.0 mg/kg/injection, schedule: Q01DX009 (ip), vehicle: saline) was 100 % of control and the T/C (dose: 100.0 mg/kg/injection, schedule: Q01DX009 (ip), vehicle: water) was 86 % of control and 90 % of control. The T/C (dose: 100.0 mg/kg/injection, schedule: Q01DX010 (ip), vehicle: water) was 90 % of control, the T/C (dose: 160.0 mg/kg/injection, schedule: Q01DX010 (ip), vehicle: saline) was 100 % of control and the T/C (dose: 200.0 mg/kg/injection, schedule: Q01DX001 (ip), vehicle: saline) was 100 % of control. The T/C (dose: 200.0 mg/kg/injection, schedule: Q01DX009 (ip), vehicle: saline) was 91 % of control and 110 % of control, the T/C (dose: 256.0 mg/kg/injection, schedule: Q01DX005 (ip), vehicle: saline) was 96 % of control and the T/C (dose: 1500.0 mg/kg/injection, schedule: Q04DX003 (ip), vehicle: water) was 200 % of control.
`COc1cccc(CCNC(=O)CC#N)c1OC` was tested, and the T/C [1] was 105 % of control, the T/C [2] was 105 % of control and the T/C [4] was 100 % of control. The T/C [3] was 95 % of control, the T/C [5] was 100 % of control and the T/C [6] was 100 % of control.
